We go through 20 molecules from patent US20230144824A1, “1H-PYRAZOLO[4,3-d]PYRIMIDINE COMPOUNDS AS TOLL-LIKE RECEPTOR 7 (TLR7) AGONISTS” (BRISTOL-MYERS SQUIBB COMPANY, priority 2020, published 2023).

One assay deals with T1, human TLR7 (Homo sapiens, UniProt Q9NYK1).
T1 construct: host or cells: HEK-Blue TLR7 cells (engineered human embryonic kidney cells)
T1 sequence (Q9NYK1 27-1049): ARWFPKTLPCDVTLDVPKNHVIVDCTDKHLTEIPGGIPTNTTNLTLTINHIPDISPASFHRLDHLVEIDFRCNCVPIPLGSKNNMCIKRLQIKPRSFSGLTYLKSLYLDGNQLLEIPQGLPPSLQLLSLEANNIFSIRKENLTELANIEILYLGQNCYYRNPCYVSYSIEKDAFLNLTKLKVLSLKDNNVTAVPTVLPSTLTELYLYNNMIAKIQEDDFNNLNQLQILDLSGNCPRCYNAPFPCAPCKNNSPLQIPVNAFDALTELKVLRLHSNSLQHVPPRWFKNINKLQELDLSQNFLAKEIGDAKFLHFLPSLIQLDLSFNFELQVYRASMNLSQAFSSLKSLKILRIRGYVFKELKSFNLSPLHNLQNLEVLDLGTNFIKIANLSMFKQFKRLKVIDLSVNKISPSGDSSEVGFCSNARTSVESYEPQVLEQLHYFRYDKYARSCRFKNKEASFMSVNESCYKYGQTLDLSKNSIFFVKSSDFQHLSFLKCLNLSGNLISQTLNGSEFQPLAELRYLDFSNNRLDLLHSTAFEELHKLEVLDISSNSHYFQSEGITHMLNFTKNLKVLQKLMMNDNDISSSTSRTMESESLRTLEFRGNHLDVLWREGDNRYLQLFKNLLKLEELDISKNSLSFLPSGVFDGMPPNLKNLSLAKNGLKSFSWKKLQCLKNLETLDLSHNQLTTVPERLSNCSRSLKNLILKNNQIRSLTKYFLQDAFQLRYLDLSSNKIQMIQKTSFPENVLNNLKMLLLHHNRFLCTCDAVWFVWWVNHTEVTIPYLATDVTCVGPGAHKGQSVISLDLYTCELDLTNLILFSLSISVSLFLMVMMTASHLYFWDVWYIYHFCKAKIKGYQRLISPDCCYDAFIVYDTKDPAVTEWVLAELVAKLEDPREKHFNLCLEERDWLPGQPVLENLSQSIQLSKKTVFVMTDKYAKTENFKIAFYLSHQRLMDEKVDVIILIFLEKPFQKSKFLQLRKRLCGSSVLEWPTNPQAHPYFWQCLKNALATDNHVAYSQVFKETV
Put plainly: Human TLR7 agonist activity assay (HEK-Blue TLR7 SEAP reporter). The conditions noted are these: HEK-Blue TLR7 cells, 18 h treatment, average where assay performed multiple times, read-out: hTLR7 Agonism EC50. In kind it is cell-based. The procedure, abridged: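 HEK-Blue TLR7 cells (15,000/well) treated with compound for 18 h at 37 °C, 5% CO2. Secreted SEAP measured with Quanti-Blue, 30 min, OD 620 nm. EC50 taken as concentration giving half-maximal response between baseline and maximum.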

Another assay has as its system CD69. The experiment in a line: Induction of CD69 in human whole blood. The conditions noted are these: Homo sapiens, 17 h, 100% set to 1 uM of resiquimod, average where assay performed multiple times, read-out: hWB CD69 EC50. The class given is cell-based. In a few lines: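 Heparinized human whole blood treated with TLR7 agonist at final 1 uM and incubated 17 h at 37° C. CD69 surface staining alongside CD14 and CD19, then fix/lysis and flow cytometry on iQuePlus. Curves fitted with 1 uM resiquimod set as 100%.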

In the case of `COc1cc(C2CCN(C(C)C)CC2)cnc1Cn1ncc2nc(N)nc(NCc3cc(C)on3)c21` [Compound 142, 1-({3-methoxy-5-[1-(propan-2-yl)piperidin-4-yl]pyridin-2-yl}methyl)-N7-[(5-methyl-1,2-oxazol-3-yl)methyl]-1H-pyrazolo[4,3-d]pyrimidine-5,7-diamine], the EC50 at human TLR7 is 43.3 nM; in the assay on CD69, 5.6 nM.
For the molecule `COc1cc(C2CCN(C3CNC3)CC2)cnc1Cn1ncc2nc(N)nc(NCc3cc(C)on3)c21` [Compound 143, 1-({5-[1-(azetidin-3-yl)piperidin-4-yl]-3-methoxypyridin-2-yl}methyl)-N7-[(5-methyl-1,2-oxazol-3-yl)methyl]-1H-pyrazolo[4,3-d]pyrimidine-5,7-diamine], the figures for the EC50 at human TLR7 and with CD69 were 295 nM and 265 nM, respectively.
As to `COc1cc(C2CCN(CCO)CC2)cnc1Cn1ncc2nc(N)nc(NCc3cc(C)on3)c21` [Compound 144, 2-(4-{6-[(5-amino-7-{[(5-methyl-1,2-oxazol-3-yl)methyl]amino}-1H-pyrazolo[4,3-d]pyrimidin-1-yl)methyl]-5-methoxypyridin-3-yl}piperidin-1-yl)ethan-1-ol], the figures for the EC50 at human TLR7 and in the assay on CD69 were 77 nM and 8.7 nM, respectively.
The matching figures for `CCCCNc1nc(N)nc2cnn(Cc3ncc(C4CCN(CC(C)(C)O)CC4)cc3OC)c12` [Compound 146, 1-[4-(6-{[5-amino-7-(butylamino)-1H-pyrazolo[4,3-d]pyrimidin-1-yl]methyl}-5-methoxypyridin-3-yl)piperidin-1-yl]-2-methylpropan-2-ol]: 28.5 nM and 25.8 nM.
Taken in the same sequence, the figures for `CCC[C@@H](CCO)Nc1nc(N)nc2cnn(Cc3ncc(C4CCN(C5CC6(CCC6)C5)CC4)cc3OC)c12` [Compound 147, (3S)-3-[(5-amino-1-{[3-methoxy-5-(1-{spiro[3.3]heptan-2-yl}piperidin-4-yl)pyridin-2-yl]methyl}-1H-pyrazolo[4,3-d]pyrimidin-7-yl)amino]hexan-1-ol] were 15.7 nM and 2.1 nM.
For `CCC[C@@H](CCO)Nc1nc(N)nc2cnn(Cc3ncc(C4CCN(C5CC6(COC6)C5)CC4)cc3OC)c12` [Compound 148, (3S)-3-[(5-amino-1-{[3-methoxy-5-(1-{2-oxaspiro[3.3]heptan-6-yl}piperidin-4-yl)pyridin-2-yl]methyl}-1H-pyrazolo[4,3-d]pyrimidin-7-yl)amino]hexan-1-ol], the EC50 was found to be 14.1 nM at human TLR7 and 0.49 nM in the assay with CD69.
Taken in the same sequence, the figures for `CCCCNc1nc(N)nc2c(Cl)nn(Cc3ncc(C4CCN(C5CCOCC5)CC4)cc3OC)c12` [Compound 149, N7-butyl-3-chloro-1-({3-methoxy-5-[1-(oxan-4-yl)piperidin-4-yl]pyridin-2-yl}methyl)-1H-pyrazolo[4,3-d]pyrimidine-5,7-diamine] were 869 nM and 590 nM.
The matching figures for `CCC[C@@H](CCO)Nc1nc(N)nc2cnn(Cc3ncc(C4CCN(C5CC6(CNC6)C5)CC4)cc3OC)c12` [Compound 150, (3S)-3-[(5-amino-1-{[5-(1-{2-azaspiro[3.3]heptan-6-yl}piperidin-4-yl)-3-methoxypyridin-2-yl]methyl}-1H-pyrazolo[4,3-d]pyrimidin-7-yl)amino]hexan-1-ol]: 88.8 nM and 44.1 nM.
Taken in the same sequence, the figures for `CCC[C@@H](CCO)Nc1nc(N)nc2cnn(Cc3ncc(C4CCN(CC(C)(C)O)CC4)cc3OC)c12` [Compound 151, (3S)-3-{[5-amino-1-({5-[1-(2-hydroxy-2-methylpropyl)piperidin-4-yl]-3-methoxypyridin-2-yl}methyl)-1H-pyrazolo[4,3-d]pyrimidin-7-yl]amino}hexan-1-ol] were 15.2 nM and 0.32 nM.
In the case of `COc1cc(C2CCN(C3CC4(COC4)C3)CC2)cnc1Cn1ncc2nc(N)nc(NCC3CC4(CC4)C3)c21` (stereo not shown) [Compound 154, 1-{[3-methoxy-5-(1-{2-oxaspiro[3.3]heptan-6-yl}piperidin-4-yl)pyridin-2-yl]methyl}-N7-({spiro[2.3]hexan-5-yl}methyl)-1H-pyrazolo[4,3-d]pyrimidine-5,7-diamine], the EC50 worked out at 34 nM on human TLR7 and 7.1 nM with CD69.
Taken in the same sequence, the figures for `COc1cc(C2CCN(C3CCOCC3)CC2)cnc1Cn1ncc2nc(N)nc(NCC3CC4(CC4)C3)c21` [Compound 157, 1-({3-methoxy-5-[1-(oxan-4-yl)piperidin-4-yl]pyridin-2-yl}methyl)-N7-({spiro[2.3]hexan-5-yl}methyl)-1H-pyrazolo[4,3-d]pyrimidine-5,7-diamine] were 50.8 nM and 37 nM.
The matching figures for `COc1cc(C2CCN(C3CNC3)CC2)cnc1Cn1ncc2nc(N)nc(NCC3CC4(CC4)C3)c21` [Compound 158, 1-({5-[1-(azetidin-3-yl)piperidin-4-yl]-3-methoxypyridin-2-yl}methyl)-N7-({spiro[2.3]hexan-5-yl}methyl)-1H-pyrazolo[4,3-d]pyrimidine-5,7-diamine]: 224 nM and 69.4 nM.
The matching figures for `COc1cc(C2CCN(C)CC2)cnc1Cn1ncc2nc(N)nc(NCC3CC4(CC4)C3)c21` [Compound 159, 1-{[3-methoxy-5-(1-methylpiperidin-4-yl)pyridin-2-yl]methyl}-N7-({spiro[2.3]hexan-5-yl}methyl)-1H-pyrazolo[4,3-d]pyrimidine-5,7-diamine]: 62 nM and 4.1 nM.
`CCCCNc1nc(N)nc2cnn(Cc3ccc(C4CCN(S(C)(=O)=O)CC4)cc3OC)c12` [Compound 161, N7-butyl-1-{[4-(1-methanesulfonylpiperidin-4-yl)-2-methoxyphenyl]methyl}-1H-pyrazolo[4,3-d]pyrimidine-5,7-diamine]: the EC50 at human TLR7 came to 107 nM; in the assay on CD69, 36 nM.
Consider `CCCCNc1nc(N)nc2cnn(Cc3ccc(C4CCN(C)CC4)cc3OC)c12` [Compound 163, N7-butyl-1-{[2-methoxy-4-(1-methylpiperidin-4-yl)phenyl]methyl}-1H-pyrazolo[4,3-d]pyrimidine-5,7-diamine], for which the figures for the EC50 at human TLR7 and in the assay on CD69 were 5 nM and 0.065 nM, respectively.
Consider `CCC[C@@H](CCO)Nc1nc(N)nc2cnn(Cc3ncc(C4CCN(CCN(C)C)CC4)cc3OC)c12` [Compound 164, (3S)-3-({5-amino-1-[(5-{1-[2-(dimethylamino)ethyl]piperidin-4-yl}-3-methoxypyridin-2-yl)methyl]-1H-pyrazolo[4,3-d]pyrimidin-7-yl}amino)hexan-1-ol], for which the values for the EC50 at human TLR7 and with CD69 were 41 nM and 3.9 nM, respectively.
Taken in the same sequence, the figures for `CCC[C@@H](CCO)Nc1nc(N)nc2cnn(Cc3cnc(C4CCNCC4)cc3OC)c12` [Compound 166, (3S)-3-[(5-amino-1-{[4-methoxy-6-(piperidin-4-yl)pyridin-3-yl]methyl}-1H-pyrazolo[4,3-d]pyrimidin-7-yl)amino]hexan-1-ol] were 45.5 nM and 22.5 nM.
Turning to `CCC[C@@H](CCO)Nc1nc(N)nc2cnn(Cc3cnc(C4CCN(C(C)C)CC4)cc3OC)c12` [Compound 167, (3S)-3-{[5-amino-1-({4-methoxy-6-[1-(propan-2-yl)piperidin-4-yl]pyridin-3-yl}methyl)-1H-pyrazolo[4,3-d]pyrimidin-7-yl]amino}hexan-1-ol], the concentration giving a half-maximal response (EC50) at human TLR7 is 9.4 nM; with CD69 it was 0.17 nM.
On to `CCC[C@@H](CCO)Nc1nc(N)nc2cnn(Cc3cnc(C4CCN(C5CCOCC5)CC4)cc3OC)c12` [Compound 168, (3S)-3-{[5-amino-1-({4-methoxy-6-[1-(oxan-4-yl)piperidin-4-yl]pyridin-3-yl}methyl)-1H-pyrazolo[4,3-d]pyrimidin-7-yl]amino}hexan-1-ol], for which the EC50 on human TLR7 is 6.8 nM; in the assay with CD69, 0.47 nM.
Taken in the same sequence, the figures for `CCCCNc1nc(N)nc2cnn(Cc3ncc(C4=CC(C)(C)NC(C)(C)C4)cc3OC)c12` [Compound 169, N7-butyl-1-({5-methoxy-2′,2′,6′,6′-tetramethyl-1′,2′,3′,6′-tetrahydro-[3,4′-bipyridine]-6-yl}methyl)-1H-pyrazolo[4,3-d]pyrimidine-5,7-diamine] were 496 nM and 121 nM.
